Measurements: PubChem BioAssay (NCI)
Several values for one entry are separate records, joined by “and”; a condition that tells them apart may be missing. Identical values can stand only once.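 Each compound was tested at five concentrations against cells in 96-well plates for 48 hours. Abbreviation: GI50, concentration required for 50% inhibition of growth. Definition used: TGI = concentration required for complete inhibition of growth.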 *1 amine or outer side, *2 acyl side, *3 side chain or, on linkers, in order; H or OH if unused. Where a SMILES comes first, the peptide text is derived from it. [ ]: non-standard residue; d: D form. X56 = CC[C@H](C)[C@H](OC(=O)[C@@H](C)[C@@H](CC)N[*:1])C(=O)[*:2]; X32 = C[C@H](N[*:1])C(=O)C(C)(C)C(=O)[*:2]; NMeY = CN[C@@H](Cc1ccc(O)cc1)C(=O)O; NMeL = CN[C@@H](CC(C)C)C(=O)O; NMeV = CN[C@H](C(=O)O)C(C)C

How the values were obtained:
Experiment in all cases: NCI tumour cell line growth inhibition, 48 h
A549 NSCLC = system: A549 NSCLC
CCRF-CEM leukemia = system: CCRF-CEM leukemia
COLO 205 colon = system: COLO 205 colon
HOP-92 NSCLC = system: HOP-92 NSCLC
NCI-H522 lung = system: NCI-H522 lung
OVCAR-8 ovarian = system: OVCAR-8 ovarian
RPMI-8226 leukemia = system: RPMI-8226 leukemia
UO-31 renal = system: UO-31 renal
DU-145 prostate = system: DU-145 prostate
OVCAR-4 ovarian = system: OVCAR-4 ovarian

Compound	TGI (A549 NSCLC)	TGI (CCRF-CEM leukemia) [µM]	TGI (COLO 205 colon) [µM]	TGI (HOP-92 NSCLC)	TGI (NCI-H522 lung) [µM]	TGI (OVCAR-8 ovarian) [µM]	TGI (RPMI-8226 leukemia) [µM]	TGI (UO-31 renal)	GI50 (CCRF-CEM leukemia) [µM]	GI50 (COLO 205 colon) [µM]	TGI (DU-145 prostate) [µM]	GI50 (HOP-92 NSCLC) [µM]	GI50 (OVCAR-8 ovarian) [µM]	GI50 (RPMI-8226 leukemia) [µM]	TGI (OVCAR-4 ovarian) [µM]	GI50 (A549 NSCLC) [µM]	GI50 (DU-145 prostate) [µM]	GI50 (NCI-H522 lung) [µM]	GI50 (UO-31 renal) [µM]	GI50 (OVCAR-4 ovarian) [µM]
CC/C=C/c1cc2cc[nH]c2c2c1C(C)C[C@@H]2C (some centres not stated)	> 100 µM	61.9	37.6	62.6 µM	40.4	66.2	53.4	69.6 µM	–	–	–	–	–	–	–	–	–	–	–	–
CC[C@H](C)[C@@H]1OC(=O)[C@@H](C)[C@@H](CC)NC(=O)[C@H](C)NC(=O)C(C)(C)C(=O)[C@H](C)NC(=O)[C@H](Cc2ccc(OC)cc2)N(C)C(=O)[C@H](C(C)C)N(C)C(=O)CNC(=O)[C@H](CC(C)C)N(C)C(=O)CNC1=O (cyclo(A[X56]G[NMeL]G[NMeV][NMeY](Me)[X32]))	3.19 µM and 6.15 µM	–	> 33.3	0.238 µM and 0.0316 µM	–	1.45	3.38	0.383 µM and 0.428 µM	< 0.0152	0.034	7.04	0.0156	0.0335	0.0263	–	–	–	–	–	–
O=C(NCc1ccncc1)C1COc2cc(-c3cc(=O)c4ccccc4o3)ccc2O1 (configuration not stated)	> 100 µM	> 100	–	> 100 µM	> 100	> 100	–	> 100 µM	–	–	–	–	–	–	> 100	–	–	–	–	–
Nc1nc(-c2cccc([N+](=O)[O-])c2)cc(-c2cc(-c3cccc([N+](=O)[O-])c3)nc(N)n2)n1	> 100 µM	–	> 100	> 100 µM	> 100	> 100	> 100	> 100 µM	–	–	> 100	–	–	–	> 100	–	–	–	–	–
CC(=O)/C=C/c1ccc(C)cc1	> 100 µM	> 100	> 100	> 100 µM	> 100	> 100	> 100	> 100 µM	–	–	–	–	–	–	> 100	–	–	–	–	–
CC(C)CN(CC(C)C)C(=O)C1CCCC[C@@H]1C(=O)O (some centres not stated)	> 100 µM	> 100	> 100	> 100 µM	> 100	> 100	> 100	> 100 µM	–	–	–	–	–	–	> 100	–	–	–	–	–
c1ccc(COC2(OCc3ccccc3)CC3OC2C2NN=NC32)cc1 (configuration not stated)	> 100 µM	33.1	> 100	40.8 µM	–	–	41.9	99.2 µM	–	–	–	–	–	–	36.4	–	–	–	–	–
COc1ccc(/C=C/NC=O)cc1	> 100 µM	> 100	> 100	–	> 100	> 100	> 100	> 100 µM	–	–	> 100	–	–	–	> 100	–	–	–	–	–
Cc1c2c(cc3c(=O)ccn(CCN(C)C)c13)c(=O)ccn2CCN(C)C	48.9 µM	27.9	24.7	31.3 µM	21.1	21.8	–	34.3 µM	–	–	–	–	–	–	18.6	–	–	–	–	–
C[C@H](N)C(=O)N1C[C@H](CCCB(O)O)[C@](N)(C(=O)O)C1	> 100 µM	> 100	> 100	> 100 µM	> 100	> 100	> 100	> 100 µM	> 100	> 100	> 100	> 100	> 100	> 100	–	> 100	> 100	> 100	> 100	–
COc1cc(Nc2nc3ccc(C(F)(F)F)cc3nc2-c2ccccc2)cc(OC)c1OC	> 100 µM	> 100	–	6.17 µM	93.6	> 100	–	55.7 µM	–	–	–	–	–	–	> 100	–	–	–	–	–
O=C(/C=C/c1ccccc1Cl)c1ccc(Cl)cc1Cl	39.8 µM	17.4	32.1	39 µM	–	29.3	37.5	36.9 µM	–	–	–	–	–	–	29.7	–	–	–	–	–
O=C(c1ccc(Cl)cc1)c1ccc(OCCSCCCCCCCCCCSCCOc2ccc(C(=O)c3ccc(Cl)cc3)cc2)cc1	> 100 µM	> 100	> 100	> 100 µM	> 100	> 100	> 100	> 100 µM	–	–	–	–	–	–	–	–	–	–	–	–
N#CC1CC2(C(=O)C1=O)c1ccccc1-c1ccccc12 (configuration not stated)	> 100 µM	> 100	> 100	–	> 100	> 100	–	> 100 µM	–	–	–	–	–	–	> 100	–	–	–	–	–
C1COCCOCCOCCOCCO1.CC(=O)[CH-]C(C)=O.CC(=O)[CH-]C(C)=O.CC(=O)[CH-]C(C)=O.[V]	> 100 µM	41.3	35.1	44.7 µM	39	76.3	50	61.4 µM	19.1	18.7	–	11.2	30.6	20.5	3.81	22.7	–	16.9	32.5	0.56
Cc1cc2cn3c4cccnc4[nH]c(=O)c3c2cc1C	–	–	3.18	2.65 µM	–	–	4.66	2.97 µM	–	1.65	3.28	1.24	–	1.89	3.19	–	1.83	–	1.5	1.6
O=c1c2cccnc2ncn1CCN1CCCC1	> 100 µM	> 100	> 100	> 100 µM	> 100	> 100	–	> 100 µM	–	–	–	–	–	–	> 100	–	–	–	–	–
O=c1c2ccccc2nc(-c2cccc(Cl)c2)n1NCC1(O)OCC(O)C(O)C1O (configuration not stated)	> 100 µM	> 100	> 100	–	> 100	> 100	> 100	> 100 µM	–	–	–	–	–	–	> 100	–	–	–	–	–
S=c1nc(N2CCCCC2)ss1	83.7 µM	46.4	–	36.7 µM	–	> 100	18	39.6 µM	–	–	–	–	–	–	> 100	–	–	–	–	–
COc1cc(/C=C2\C(=O)Nc3cccc(Cl)c32)cc(OC)c1OC	> 100 µM	0.527	> 100	93.2 µM	> 100	> 100	> 100	> 100 µM	0.0529	> 100	–	23.9	> 100	53.7	> 100	> 100	–	> 100	> 100	> 100
CCC(C(=O)c1ccccc1)C(CCCC(=O)Nc1c(C)cccc1C)N=O (configuration not stated)	> 100 µM	> 100	> 100	> 100 µM	> 100	> 100	> 100	> 100 µM	–	–	–	–	–	–	> 100	–	–	–	–	–
Cc1ccc(Oc2ccc([N+](=O)[O-])cc2[N+](=O)[O-])c(C)c1	> 100 µM	> 100	–	–	–	> 100	97.7	> 100 µM	–	–	–	–	–	–	> 100	–	–	–	–	–
